Results from PubChem BioAssay (NCI).
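Results reflect a 48-hour exposure of cells in 96-well plates to compound at five concentrations. GI50: concentration for 50% inhibition of growth. TGI: concentration producing complete growth inhibition.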

What was measured:
Experiment in all cases: NCI-60 cell line screen, 48 h
[1] = test system: SK-MEL-28 melanoma
[2] = test system: SF-268 CNS
[3] = test system: HOP-92 NSCLC
[4] = test system: OVCAR-8 ovarian
[5] = test system: NCI-H460 lung
[6] = test system: ACHN renal
[7] = test system: UACC-257 melanoma
[8] = test system: TK-10 renal
[9] = test system: MDA-MB-231 breast
[10] = test system: MALME-3M melanoma
[11] = test system: HCT-15 colon
[12] = test system: SR leukemia
[13] = test system: BT-549 breast
[14] = test system: SF-295 CNS
[15] = test system: NCI-H522 lung
[16] = test system: SNB-19 CNS
[17] = test system: KM12 colon
[18] = test system: UACC-62 melanoma
[19] = test system: NCI/ADR-RES ovarian
[20] = test system: EKVX NSCLC
[21] = test system: SN12C renal
[22] = test system: HOP-62 NSCLC
[23] = test system: NCI-H23 lung
[24] = test system: CCRF-CEM leukemia
[25] = test system: RXF 393 renal
[26] = test system: SW-620 colon
[27] = test system: M14 melanoma
[28] = test system: A549 NSCLC
[29] = test system: K-562 leukemia
[30] = test system: U251 CNS
[31] = test system: IGROV1 ovarian
[32] = test system: HS 578T breast
[33] = test system: 786-0 renal
[34] = test system: SK-MEL-2 melanoma
[35] = test system: RPMI-8226 leukemia
[36] = test system: OVCAR-5 ovarian
[37] = test system: SF-539 CNS
[38] = test system: SK-OV-3 ovarian
[39] = test system: T-47D breast
[40] = test system: CAKI-1 renal
[41] = test system: DU-145 prostate
[42] = test system: SNB-75 CNS
[43] = test system: COLO 205 colon
[44] = test system: NCI-H226 lung
[45] = test system: A498 renal
[46] = test system: HL-60(TB) leukemia
[47] = test system: HCT-116 colon
[48] = test system: SK-MEL-5 melanoma
[49] = test system: MOLT-4 leukemia
[50] = test system: OVCAR-4 ovarian
[51] = test system: MDA-MB-435

N#Cc1cnc2ccc(-c3cnc4[nH]ncc4c3)cc2c1N1CCc2cc(F)c(Cl)cc21
GI50 [1]: 330 nM | TGI [1]: > 100000 nM | GI50 [2]: 296 nM | GI50 [3]: 204 nM | TGI [3]: 673 nM | GI50 [4]: 348 nM | TGI [4]: > 100000 nM | GI50 [5]: 327 nM | TGI [5]: > 100000 nM | GI50 [6]: 360 nM | TGI [6]: > 100000 nM | GI50 [7]: 312 nM | TGI [7]: > 100000 nM | GI50 [8]: 275 nM | TGI [8]: > 36200 nM | GI50 [9]: 302 nM | TGI [9]: 6700 nM | GI50 [10]: 232 nM | TGI [10]: 648 nM | GI50 [11]: 293 nM | TGI [11]: > 100000 nM | GI50 [12]: 262 nM | TGI [12]: > 100000 nM | GI50 [13]: 232 nM | TGI [13]: 716 nM | GI50 [14]: 206 nM | TGI [14]: 599 nM | GI50 [15]: 254 nM | TGI [15]: 725 nM | GI50 [16]: 399 nM | TGI [16]: > 35400 nM | GI50 [17]: 400 nM | TGI [17]: > 100000 nM | GI50 [18]: 250 nM | GI50 [19]: 334 nM | TGI [19]: > 100000 nM | GI50 [20]: 309 nM | TGI [20]: > 100000 nM | GI50 [21]: 303 nM | TGI [21]: > 100000 nM | GI50 [22]: 255 nM | TGI [22]: 1100 nM | GI50 [23]: 406 nM | TGI [23]: > 100000 nM | GI50 [24]: 355 nM | TGI [24]: > 100000 nM | GI50 [25]: 171 nM | TGI [25]: 599 nM | GI50 [26]: 389 nM | TGI [26]: > 100000 nM | GI50 [27]: 322 nM | TGI [27]: > 100000 nM | GI50 [28]: 292 nM | TGI [28]: > 100000 nM | GI50 [29]: 360 nM | TGI [29]: > 100000 nM | GI50 [30]: 373 nM | TGI [30]: > 100000 nM | GI50 [31]: 177 nM | TGI [31]: 544 nM | GI50 [32]: 151 nM | TGI [32]: 406 nM | GI50 [33]: 370 nM | TGI [33]: 5120 nM | GI50 [34]: 222 nM | TGI [34]: 518 nM | GI50 [35]: 402 nM | TGI [35]: > 100000 nM | GI50 [36]: 371 nM | TGI [36]: > 100000 nM | GI50 [37]: 230 nM | TGI [37]: 564 nM | GI50 [38]: 214 nM | TGI [38]: 591 nM | GI50 [39]: 214 nM | TGI [39]: > 100000 nM | GI50 [40]: 250 nM | TGI [40]: > 100000 nM | GI50 [41]: 372 nM | TGI [41]: > 100000 nM | GI50 [42]: 145 nM | TGI [42]: 428 nM

Cc1ccc(NC(=O)c2ccc(CN3CCN(C)CC3)c(C(F)(F)F)c2)cc1Oc1ccc(-c2[nH]nc3ncnc(N)c23)cc1
GI50 [1]: 1740 nM | TGI [1]: 3390 nM | GI50 [2]: 3770 nM | TGI [2]: 30200 nM | GI50 [5]: 1840 nM | TGI [5]: 3590 nM | GI50 [43]: 7290 nM | TGI [43]: 25200 nM | GI50 [6]: 1730 nM | TGI [6]: 3180 nM | GI50 [44]: 18000 nM | TGI [44]: 72900 nM | GI50 [45]: 18400 nM | TGI [45]: 42900 nM | GI50 [7]: 2510 nM | TGI [7]: 5800 nM | GI50 [8]: 32400 nM | TGI [8]: 63300 nM | GI50 [46]: 6420 nM | TGI [46]: 78500 nM | GI50 [11]: 1570 nM | TGI [11]: 3290 nM | GI50 [14]: 8510 nM | TGI [14]: 44100 nM | GI50 [15]: 3040 nM | TGI [15]: 9350 nM | GI50 [17]: 1600 nM | TGI [17]: 3670 nM | GI50 [18]: 2020 nM | TGI [18]: 4810 nM | GI50 [19]: 3080 nM | TGI [19]: 12900 nM | GI50 [20]: 2010 nM | TGI [20]: 4190 nM | GI50 [21]: 3680 nM | TGI [21]: 18700 nM | GI50 [22]: 2260 nM | TGI [22]: 5140 nM | GI50 [26]: 1970 nM | TGI [26]: 3690 nM | GI50 [27]: 1720 nM | TGI [27]: 4280 nM | GI50 [28]: 2180 nM | TGI [28]: 5360 nM | GI50 [29]: 713 nM | TGI [29]: > 100000 nM | GI50 [32]: 4970 nM | TGI [32]: 42800 nM | GI50 [34]: 23200 nM | TGI [34]: 81700 nM | GI50 [47]: 1890 nM | TGI [47]: 4350 nM | GI50 [36]: 1970 nM | TGI [36]: 3660 nM | GI50 [37]: 1160 nM | TGI [37]: 2500 nM | GI50 [48]: 1670 nM | TGI [48]: 3090 nM | GI50 [38]: 23500 nM | TGI [38]: 56500 nM | GI50 [39]: 2610 nM | TGI [39]: 7170 nM | GI50 [49]: 2030 nM | TGI [49]: 7310 nM | GI50 [40]: 9050 nM | TGI [40]: 29700 nM | GI50 [41]: 1830 nM | TGI [41]: 3470 nM | GI50 [50]: 18700 nM | TGI [50]: 42000 nM | GI50 [42]: 419 nM | TGI [42]: 24000 nM | GI50 [51]: 1610 nM | TGI [51]: 3340 nM
